# Source: patent EP3041353B1, “COMPOSITIONS COMPRISING BACTERIOSTATIC AGENTS AND BRILLIANT BLUE G” (priority 2013, dated 2015)
# Experiments:
# [1] = test system: Bacillus sp.; experiment: Bacteriostatic effect of BAK with BBG/BBR: turbidity after 24 h incubation; format: cell-based; set-up: key to Bakterienwachstum nach 24 h Inkubation: +: Bakterienwachstum nach 24 h Inkubation; -: kein Bakterienwachstum nach 24 h Inkubation
# Description: (§1) Zur Untersuchung des Einflusses von BBG auf die bakteriostatische Wirkung wurden Bakterien 24 h mit erfindungsgemäßen Zusammensetzungen, Benzalkoniumchlorid (BAK) und Octenidin (Oct) als Bakteriostatikum enthielten, inkubiert. Wenn sich die Inkubationsmischung trübte, wurde das als Bakterienwachstum interpretiert. Zum Vergleich wurde Brillantblau R (BBR) anstelle von BBG eingesetzt. Die Ergebnisse sind in den Tabellen 1-4 wiedergegeben. Tabelle 1: Einfluss von BBG und BBR auf die bakteriostatische Wirkung von BAK gegenüber Escherichia coli (E. coli), + = Bakterienwachstum nach 24 h Inkubation, - = kein Bakterienwachstum nach 24 h Inkubation, R = Brillantblau R (BBR), G = Brillantblau G (BBG).
# Tabelle 2: Einfluss von BBG und BBR auf die bakteriostatische Wirkung von BAK gegenüber Bacillus sp., + = Bakterienwachstum nach 24 h Inkubation, - = kein Bakterienwachstum nach 24 h Inkubation, R = Brillantblau R (BBR), G = Brillantblau G (BBG).
# [2] = test system: HCE-Zellen; format: cell-based, human
# Description: Die Erfindung wird im Folgenden rein zu Veranschaulichungszwecken anhand der angehängten Figuren und von Ausführungsbeispielen näher erläutert. • Figur 1 Effekt von 0,025% BBG auf die Toxizität von unterschiedlichen Konzentrationen (in Gew.-%) von Benzalkoniumchlorid (BAK) auf HCE-Zellen (HCE = human corneal epithelium, Menschliche Hornhautepithelzellen) bei verschiedenen Einwirkdauern (5, 30, 60 min). Oben: BAK ohne BBG. Unten: BAK mit BBG. Inkubationsmedium: Phosphat-gepufferte Kochsalzlösung (PBS). • Figur 2 Effekt von BBG (in Gew.-%) in unterschiedlichen Konzentrationen auf die Toxizität von BAK bei 0,003% (oben) und 0,008% (unten). PBS = Phosphat-gepufferte Kochsalzlösung; BBS = balanced salt solution (ausgeglichene Salzlösung). • Figur 3 Effekt von BBG (0,025 Gew.-%) auf die Toxizität von Octenidindihydrochlorid (Oct) in unterschiedlichen Konzentrationen (in Gew.-%) nach 5 min Inkubation (oben) und 30 min Inkubation (unten). Octenidin alone = Octenidin allein (ohne BBG). • Figur 4 Effekt von BBG (0,025 %) auf die Toxizität von Cetylpyridiniumchlorid (CPC) in unterschiedlichen Konzentrationen (in Gew.-%) nach 5 min Inkubation (oben) und 30 min Inkubation (unten). CPC alone = Cetylpyridiniumchlorid allein (ohne BBG). • Figur 5 Effekt von BBG (0,025 %) auf die Toxizität von Chlorhexidin (CHex) in Form von Chlorhexidindigluconat in unterschiedlichen Konzentrationen (in Gew.-%) nach 5 min Inkubation (oben) und 30 min Inkubation (unten). Chlorhexidin alone = Chlorhexidin allein (ohne BBG)
# Figur 1 zeigt die Wirkung von BBG 0,025% Gew.-% auf die Toxizität von unterschiedlichen Konzentrationen (in Gew.-%) von Benzalkoniumchlorid (BAK) auf HCE-Zellen (HCE = human corneal epithelium, Menschliche Hornhautepithelzellen) bei verschiedenen Einwirkdauern (5, 30, 60 min).
# Figur 2 zeigt die Wirkung von BBG (in Gew.-%) in unterschiedlichen Konzentrationen und zwei unterschiedlichen Medien (PBS und BSS) auf die Toxizität von BAK bei 0,003% (oben) und 0,008% (unten) bei HCE-Zellen. Die Schutzwirkung von BBG bei niedrigeren BAK-Konzentrationen setzt schon bei 0,003% BBG ein. Bei höheren BAK-Konzentrationen sind 0,015% notwendig.
# Figur 3 zeigt die Wirkung von BBG (0,025 Gew.-%) auf die Toxizität von Octenidin (Oct) Form von Octenidindihydrochlorid in unterschiedlichen Konzentrationen (in Gew.-%) nach 5 min Inkubation (oben) und 30 min Inkubation (unten). Octenidin alone = Octenidin allein (ohne BBG). […] BBG (0,025 Gew.-%) kann diesen Effekt bei 5 min Inkubation (links) bis zu einer Oct-Konzentration von 0,01% (der höchsten getesteten Konzentration) verhindern. Bei 30 min Einwirkzeit (rechts) ist erst ab 0,009 Gew.-% Oct der Schutz nicht mehr maximal.
# Die Figuren 4 und 5 zeigen die Wirkung von BBG (0,025 Gew.-%) auf die Toxizität von Cetylpyridiniumchlorid (CPC, Fig. 4) und Chlorhexidin (CHex in Form von Chlorhexidindigluconat, Fig. 5) in unterschiedlichen Konzentrationen (in Gew.-%) nach 5 min Inkubation (jeweils oben) und 30 min Inkubation (jeweils unten).
# [3] = test system: Vibrio sp. Gal12; experiment: Bacteriostatic effect of Octenidin with BBG: turbidity after 24 h incubation; format: cell-based; set-up: key: +: Bakterienwachstum nach 24 h Inkubation; -: kein Bakterienwachstum nach 24 h Inkubation
# Description: as §1
# (§2) Gram-negative Bakterien (hier E. coli) sind widerstandsfähiger als Gram-positive Bakterien (hier Bacillus sp.) und wachsen konzentrationsabhängig. […] Tabelle 3: Einfluss von BBG auf die bakteriostatische Wirkung von Octenidin (Oct) gegenüber Gram-negativen Bakterien., + = Bakterienwachstum nach 24 h Inkubation, - = kein Bakterienwachstum nach 24 h Inkubation, BBG = Brillantblau G.
# [4] = test system: Escherichia coli DH5α; experiment: as above; format: cell-based; set-up: key: +: Bakterienwachstum nach 24 h Inkubation; -: kein Bakterienwachstum nach 24 h Inkubation
# Description: as §1, §2
smiles,measurement,setting,value
"CCOc1ccc(Nc2ccc(C(=C3C=CC(=[N+](CC)Cc4cccc(S(=O)(=O)[O-])c4)C=C3C)c3ccc(N(CC)Cc4cccc(S(=O)(=O)O)c4)cc3C)cc2)cc1 [BBG, Brillantblau G]",Bakterienwachstum nach 24 h Inkubation,[1]; 0.007% G + BAK 0.001%,-
same,Bakterienwachstum nach 24 h Inkubation,[1]; 0.007% G + BAK 0.01%,-
same,Bakterienwachstum nach 24 h Inkubation,"[1]; 0.030% G, Kein BAK",+
same,Einfluss auf das Bakterienwachstum,"[1]; dye alone, no BAK (rechte Spalte, Tabelle 2)",beeinflussen das Bakterienwachstum nicht
same,Überleben,[2],leichten Erniedrigung des Überlebens
same,Schutzwirkung (=erhöhtes Zellüberleben),"[2]; BBG 0,025% with BAK, 60 min Einwirkzeit, PBS (Figur 1)",noch deutlich vorhanden
same,"CPC-Konzentration, bis zu der der Schutzeffekt gegeben ist","[2]; BBG 0,025 Gew.-% with CPC, 5 min and also 30 min Einwirkzeit (Figur 4)","~0,02%"
same,Schutzeffekt,"[2]; BBG 0,025 Gew.-% with Chlorhexidin (Chlorhexidindigluconat), 5 and 30 min, compared with the CPC result (Figur 5)",Ähnliches gilt
same,"Oct-Konzentration, bis zu der BBG den zellschädigenden Effekt verhindert","[2]; BBG 0,025 Gew.-%, 5 min Inkubation, highest Oct concentration tested (Figur 3)","≤ 0,01%"
same,"Oct-Konzentration, ab der der Schutz nicht mehr maximal ist","[2]; BBG 0,025 Gew.-%, 30 min Einwirkzeit (Figur 3)","≥ 0,009 Gew.-%"
same,Schutzwirkung (zelltoxische Wirkung der Bakteriostatika bei gleichzeitiger Gabe),[2]; dye given together with the bacteriostatic agent,stark reduziert
same,"BBG-Konzentration, die für die Schutzwirkung notwendig ist","[2]; höhere BAK-Konzentration (BAK 0,008%), PBS and BSS (Figur 2)","0,015%"
same,"BBG-Konzentration, bei der die Schutzwirkung einsetzt","[2]; niedrigere BAK-Konzentration (BAK 0,003%), PBS and BSS (Figur 2)","0,003%"
same,Bakterienwachstum nach 24 h Inkubation,"[3]; 0,007% BBG + Octenidin 0,01%",-
same,Bakterienwachstum nach 24 h Inkubation,"[3]; 0,007% BBG + Octenidin 0,002%",+
same,Bakterienwachstum nach 24 h Inkubation,"[3]; 0,007% BBG + Octenidin 0,003%",-
same,Bakterienwachstum nach 24 h Inkubation,"[3]; 0,007% BBG + Octenidin 0,005%",-
same,Bakterienwachstum nach 24 h Inkubation,"[3]; 0,007% BBG + Octenidin 0,007%",-
same,Bakterienwachstum nach 24 h Inkubation,"[3]; 0,007% BBG + Octenidin 0,009%",-
same,Bakterienwachstum nach 24 h Inkubation,"[3]; 0,007% BBG, Octenidin 0%",+
same,Bakterienwachstum nach 24 h Inkubation,"[3]; 0,015% BBG + Octenidin 0,01%",-
same,Bakterienwachstum nach 24 h Inkubation,"[3]; 0,015% BBG + Octenidin 0,002%",+
same,Bakterienwachstum nach 24 h Inkubation,"[3]; 0,015% BBG + Octenidin 0,003%",+
same,Bakterienwachstum nach 24 h Inkubation,"[3]; 0,015% BBG + Octenidin 0,005%",+
same,Bakterienwachstum nach 24 h Inkubation,"[3]; 0,015% BBG + Octenidin 0,007%",-
same,Bakterienwachstum nach 24 h Inkubation,"[3]; 0,015% BBG + Octenidin 0,009%",-
same,Bakterienwachstum nach 24 h Inkubation,"[3]; 0,015% BBG, Octenidin 0%",+
same,Bakterienwachstum nach 24 h Inkubation,"[3]; 0,030% BBG + Octenidin 0,01%",+
same,Bakterienwachstum nach 24 h Inkubation,"[3]; 0,030% BBG + Octenidin 0,002%",+
same,Bakterienwachstum nach 24 h Inkubation,"[3]; 0,030% BBG + Octenidin 0,003%",+
same,Bakterienwachstum nach 24 h Inkubation,"[3]; 0,030% BBG + Octenidin 0,005%",+
same,Bakterienwachstum nach 24 h Inkubation,"[3]; 0,030% BBG + Octenidin 0,007%",+
same,Bakterienwachstum nach 24 h Inkubation,"[3]; 0,030% BBG + Octenidin 0,009%",+
same,Bakterienwachstum nach 24 h Inkubation,"[3]; 0,030% BBG, Octenidin 0%",+
same,Bakterienwachstum nach 24 h Inkubation,"[4]; 0,007% BBG + Octenidin 0,01%",-
same,Bakterienwachstum nach 24 h Inkubation,"[4]; 0,007% BBG + Octenidin 0,002%",+
same,Bakterienwachstum nach 24 h Inkubation,"[4]; 0,007% BBG + Octenidin 0,003%",-
same,Bakterienwachstum nach 24 h Inkubation,"[4]; 0,007% BBG + Octenidin 0,005%",-
same,Bakterienwachstum nach 24 h Inkubation,"[4]; 0,007% BBG + Octenidin 0,007%",-
same,Bakterienwachstum nach 24 h Inkubation,"[4]; 0,007% BBG + Octenidin 0,009%",-
same,Bakterienwachstum nach 24 h Inkubation,"[4]; 0,007% BBG, Octenidin 0%",+
same,Bakterienwachstum nach 24 h Inkubation,"[4]; 0,015% BBG + Octenidin 0,01%",-
same,Bakterienwachstum nach 24 h Inkubation,"[4]; 0,015% BBG + Octenidin 0,002%",+
same,Bakterienwachstum nach 24 h Inkubation,"[4]; 0,015% BBG + Octenidin 0,003%",+
same,Bakterienwachstum nach 24 h Inkubation,"[4]; 0,015% BBG + Octenidin 0,005%",+
same,Bakterienwachstum nach 24 h Inkubation,"[4]; 0,015% BBG + Octenidin 0,007%",-
same,Bakterienwachstum nach 24 h Inkubation,"[4]; 0,015% BBG + Octenidin 0,009%",-
same,Bakterienwachstum nach 24 h Inkubation,"[4]; 0,015% BBG, Octenidin 0%",+
same,Bakterienwachstum nach 24 h Inkubation,"[4]; 0,030% BBG + Octenidin 0,01%",+
same,Bakterienwachstum nach 24 h Inkubation,"[4]; 0,030% BBG + Octenidin 0,002%",+
same,Bakterienwachstum nach 24 h Inkubation,"[4]; 0,030% BBG + Octenidin 0,003%",+
same,Bakterienwachstum nach 24 h Inkubation,"[4]; 0,030% BBG + Octenidin 0,005%",+
same,Bakterienwachstum nach 24 h Inkubation,"[4]; 0,030% BBG + Octenidin 0,007%",+
same,Bakterienwachstum nach 24 h Inkubation,"[4]; 0,030% BBG + Octenidin 0,009%",+
same,Bakterienwachstum nach 24 h Inkubation,"[4]; 0,030% BBG, Octenidin 0%",+
